From article PMC9475137, “Sesquiterpene lactones from Artemisia vulgaris L. as potential NO inhibitors in LPS-induced RAW264.7 macrophage cells” (Frontiers in Chemistry, 2022) come the findings set out here.

Common to all, as to format: cell-based
In one data set the test system is COX-2. The experiment in a line: COX-2 expression in LPS-induced RAW264.7 cells (quantitative real-time PCR and Western blotting). The note with it: LPS-induced RAW264.7 macrophages; qPCR and Western blotting; compound 1 at 4 μM compared with dexamethasone. How it is done:
(§1) RAW264.7 cells were seeded in a six-well plate (10 × 10^5 cells/well) for the indicated time. Cells were pretreated with compound 1 (0.5, 1, and 4 μM) for 1 h and then stimulated with LPS (1 ug/mL) for 18 h. Total cellular RNA was extracted with Trizol reagent (TIANGEN, Beijing, China). One microgram of RNA per sample was reverse-transcribed into cDNA using the PrimeScript RT Reagent Kit (TAKARA, Dalian, China). qPCR assays were performed by the CFX96 Touch Real-Time PCR Detection System (Bio-Rad). The following primers were used: iNOS (forward, 5′-AAACCCCAGGTGCTATTCCC-3′; reverse, 5′-TGGGTCCTCTGGTCAAACTC-3′), COX-2 (forward, 5′-ATTCCAAACCAGCAGACTCATA-3′; reverse, CTTGAGTTTGAAGTGGTAACCG-3′), and GAPDH (forward, 5′- GTCATTGAGAGCAATGCCAG-3′; reverse, 5′-GTGTTCCTACCCCCAATGTG-3′). […]
(§2) RAW264.7 cells with the indicated treatment were harvested and treated in a RIPA lysis buffer (Beyotime, Shanghai, China) containing a protease and phosphatase inhibitor cocktail (Beyotime, Shanghai, China) to obtain the lysates. Then, the total proteins were measured using the bicinchoninic acid (BCA) protein assay kit (Beyotime, Shanghai, China) and regulated by a loading buffer and the RIPA lysis buffer. […] Finally, the protein bands were detected using the ImageJ software (Bio-Rad, Hercules, CA, United States).

In data set [1] the test system is NO production in LPS-induced RAW264.7 cells. The experiment in a line: Inhibition of NO production in LPS-induced RAW264.7 macrophages (Griess reagent). The note with it: for IC50: Mus musculus, RAW264.7, pretreated 1 h with compounds (0.25–4 μM), LPS 1 μg/ml 18 h, Mean ± SD, read-out: IC50 (μM), NO inhibition toward LPS-induced RAW264.7 cells. The method, then:
The level of accumulated nitrite in the culture media reflected the level of NO using the classic Griess reagent (Beyotime, Jiangsu, China). The RAW264.7 cells were seeded in a 96-well plate with a 6 ×10^4 cells/ml density for the indicated time. Then, the cells were pretreated for 1 h with test compounds (0.25–4 μM), followed by stimulation with LPS (1 μg/ml) for 18 h. Finally, 50 ul of the culture supernatant was mixed with an equal amount of the Griess reagent, and the optical densities at 570 nm were read using a microplate reader. The nitric oxide concentration of the samples was calculated according to the standard curve.

Data set [2] in a line: Cytotoxicity against RAW264.7 cells (CCK8). The note with it: mouse, 24 h incubation, 3.125–200 μM. How it is done: For the cytotoxicity assay, RAW 264.7 cells were grown in DMEM containing 10% FBS and cultured at 37°C. Then, the cells were seeded in a 96-well plate (1 × 10^4 cells/well) before the cells were incubated for 24 h in various concentrations of compounds (3.125–200 μM). Cell viability was examined using a CCK8-kit. The CCK8 solution (5 µl) was added to each well and incubated for 1–2 h at 37°C. The OD value at 450 nm was quantified by Graphpad software, and the corresponding 50% cytotoxic concentration (CC50) of the compounds was subsequently obtained.

For another data set, the system named is iNOS. The experiment in a line: iNOS expression in LPS-induced RAW264.7 cells (quantitative real-time PCR and Western blotting). The note with it: LPS-induced RAW264.7 macrophages; qPCR and Western blotting; compound 1 at 4 μM compared with dexamethasone. How it is done:
as §1, §2
On the technique in general: Real-time PCR tracks product formation cycle by cycle.

“Also recorded” adds a separate entry of the source. Bounds are passed on as bounds.

For orientation: IC50 means the concentration that gives 50% inhibition. As a reminder, the CC50 is the concentration that lowers cell viability or growth by half. Low readings indicate greater toxicity to the cells, high ones lower toxicity to the cells. As to `C=C1C(=O)O[C@H]2[C@H]1[C@@H](OC(=O)/C(C)=C\C)C=C(C)[C@]1(O)CC=C(C)[C@H]21` [Compound 1, Artemvulactone H], the “expression of COX-2” value with COX-2 is “reduced more expressions of iNOS and COX-2 than the positive drug; also recorded: suppressed”. Further, in data set [1] (LPS-stimulated RAW264.7 cells), the “NO production inhibitory effect, in words (ranking / comparison with positive control dexamethasone)” value is “most active”. The IC50 in data set [1] came out at 1.1 ± 0.1 µM. In addition, the CC50 at 24 h in data set [2] is over 10 µM. For the same molecule, the “expression of iNOS” value in the data set on iNOS is “reduced more expressions of iNOS and COX-2 than the positive drug; also recorded: suppressed”.
For the molecule `C=C1C(=O)O[C@H]2[C@H]1[C@@H](OC(=O)C(C)CC)C=C(C)[C@]1(O)CC=C(C)[C@H]21` (stereo partly drawn) [Compound 2, Artemvulactone I], the concentration for half-maximal inhibition (IC50) in data set [1] worked out at 1.2 ± 0.3 µM. Also, the CC50 at 24 h in data set [2] was over 10 µM.
With `C=C1C(=O)O[C@H]2[C@H]1[C@@H](OC(=O)CC(C)C)C=C(C)[C@]1(O)CC=C(C)[C@H]21` [Compound 3, Artemvulactone J], the concentration for half-maximal inhibition (IC50) in data set [1] was determined as 2.8 ± 0.1 µM. Further, in data set [2], the 50% cytotoxic concentration (CC50) at 24 h is over 10 µM.
In the same order, the values of `C=C1C(=O)O[C@H]2[C@H]1[C@@H](OC(=O)CC(C)C)CC(=C)[C@]1(O)CC=C(C)[C@H]21` [Compound 4, Artemvulactone K] are 3.6 ± 0.1 µM and over 20 µM.
With `C=C1CC(OC(=O)C(C)=CC)C2C(C)C(=O)OC2C2C(C)=CCC12O` (stereo not drawn) [Compound 5, Artemvulactone L], the IC50 in data set [1] is over 10 µM. In data set [2], the cytotoxic concentration (CC50) at 24 h is over 100 µM.
`C=C1C(=O)O[C@H]2[C@H]1[C@@H](OC(=O)C(C)C)CC(=C)[C@]1(O)C[C@H]3O[C@@]3(C)[C@H]21` [Compound 6, Artemvulactone M]: the IC50 in data set [1] amounted to 3.1 ± 0.1 µM. In addition, the CC50 at 24 h in data set [2] is over 20 µM.
Take `C=C1C(=O)O[C@H]2[C@H]1[C@@H](OC(=O)/C(C)=C\C)CC(=C)[C@]1(O)CC=C(C)[C@H]21` [Compound 7, Artemvulactone N]: in data set [1], the IC50 stood at 2.1 ± 0.6 µM. This molecule returned a CC50 at 24 h in data set [2] of over 20 µM.
With `C=C1C(=O)O[C@H]2[C@H]1[C@@H](OC(=O)C(C)C)C=C(C)[C@]1(O)C[C@H]3O[C@@]3(C)[C@H]21` [Compound 8, Artemvulactone O], the IC50 in data set [1] was 3.2 ± 0.1 µM. For the same molecule, in data set [2], the CC50 at 24 h was over 20 µM.
Take `C=C1C(=O)O[C@@H]2[C@H]3C(C)=CC(=O)C3=C(C)C[C@H](OC(=O)CC)[C@@H]12` [Compound 9, Artemvulactone P]: in data set [1], the IC50 amounted to 1.9 ± 0.8 µM. In data set [2], this molecule yielded a CC50 at 24 h of over 20 µM.
With `C=C1C(=O)OC2C1C(OC(=O)CC)CC(C)(OC)C1C(=O)C=C(C)C21` (stereo not drawn) [Compound 10, Artemvulactone Q], the 50% inhibitory concentration (IC50) in data set [1] came out at 2.1 ± 0.1 µM. The CC50 at 24 h in data set [2] is over 10 µM.
In the case of `C=C1C(=O)O[C@H]2[C@H]1[C@@H](OC(=O)CC)C=C(C)[C@]1(O)C[C@H]3O[C@@]3(C)[C@H]21` [Compound 11, Artemvulactone R], the IC50 in data set [1] was 1.9 ± 0.4 µM. In data set [2], this molecule yielded a CC50 at 24 h of over 15 µM.
Taken in the same sequence, the figures for `C=C1C(=O)OC2C1CCC(C)(O)C1(O)C(Cl)C3OC3(C)C21` (stereo not drawn) [Compound 12, Artemvulactone S] were 2.7 ± 0.5 µM and over 40 µM.
With `C=C1C(=O)O[C@H]2[C@H]1[C@@H](OC(=O)C(C)CC)CC(=C)[C@]1(O)CC=C(C)[C@H]21` (stereo partly drawn) [Compound 13, 1α-hydroxy-8α-methylbutyroxy-3(4),10(14),11(13)-trienguai-12,6α-olide], the IC50 in data set [1] was found to be 1.5 ± 0.1 µM. The CC50 at 24 h in data set [2] is over 15 µM.
Consider `C=C1C(=O)O[C@H]2[C@H]1[C@@H](OC(=O)C=C(C)C)CC(=C)[C@]1(O)CC=C(C)[C@H]21` [Compound 14, 1α-hydroxy-8α-senecioyloxy-3(4),10(14),11(13)-trienguai-12,6α-olide], for which the IC50 in data set [1] was determined as 1.4 ± 0.2 µM. In data set [2], the CC50 at 24 h is over 15 µM.
In the same order, the values of `C=C1C(=O)O[C@H]2[C@H]1[C@@H](OC(=O)/C(C)=C/C)CC(=C)[C@]1(O)CC=C(C)[C@H]21` [Compound 15, 8-epi-Tiglylrupicolin B] are 1.2 ± 0.1 µM and over 10 µM.
Taken in the same sequence, the figures for `C=C1C(=O)O[C@H]2[C@H]1[C@@H](OC(=O)/C(C)=C\C)CC(=C)[C@]1(O)C[C@H]3O[C@@]3(C)[C@H]21` [Compound 16, 8-angeloyloxy-1α-hydroxy-3α, 4α-epoxy-5α, 7αH-10(14), 11(13)-guaiadien-12,6α-olide] were 1.1 ± 0.2 µM and over 10 µM.
In the same order, the values of `C=C1C(=O)O[C@H]2[C@H]1[C@@H](OC(=O)C(C)C)CC(=C)[C@]1(O)CC=C(C)[C@H]21` [Compound 17, 8-epi-isobutyrylrupicolin B] are 1.5 ± 0.1 µM and over 20 µM.
For the molecule `C=C1C(=O)O[C@H]2[C@H]1[C@@H](OC(=O)C(C)C)C=C(C)[C@]1(O)CC=C(C)[C@H]21` [Compound 18, 8-epi-isobutyrylrupicolin], the concentration for half-maximal inhibition (IC50) in data set [1] stood at 1.1 ± 0.1 µM. Also, the CC50 at 24 h in data set [2] is over 20 µM.
`C=C1C(=O)O[C@H]2[C@H]1[C@@H](OC(=O)CC(C)C)CC(=C)[C@]1(O)C[C@H]3O[C@@]3(C)[C@H]21` [Compound 19, 3α,4α-epoxyrupicolin E]: the IC50 in data set [1] worked out at 1 ± 0.2 µM. This molecule also displayed a cytotoxic concentration (CC50) at 24 h in data set [2] of over 25 µM.
Taken in the same sequence, the figures for `C=C1C(=O)O[C@@H]2[C@H]3C(C)=CC(=O)C3=C(C)CC[C@@H]12` [Compound 20, dehydroleucodine] were 1.8 ± 0.1 µM and over 70 µM.
On to `C=C1C(=O)O[C@H]2[C@H]1[C@@H](OC(C)=O)CC(C)=C1C[C@H]3O[C@@]3(C)[C@@H]12` [Compound 21, (+)-Arteglasin A], for which the IC50 in data set [1] worked out at 1.2 ± 0.2 µM. Moreover, in data set [2], the CC50 at 24 h was over 20 µM.
Turning to `C=C1C(=O)O[C@@H]2[C@H]3C(C)=CC(=O)C3=C(C)C[C@H](OC(C)=O)[C@@H]12` [Compound 22, Dehydromatricarin], the IC50 in data set [1] is 1.8 ± 0.2 µM. This molecule had a CC50 at 24 h in data set [2] of over 10 µM.
As to `C[C@@H]1C[C@H]2[C@@H]3CCC4=CC(=O)C=C[C@]4(C)[C@@]3(F)[C@@H](O)C[C@]2(C)[C@@]1(O)C(=O)CO` [Dexamethasone, reference compound], the IC50 in data set [1] was 4.3 ± 0.3 µM.
